Measured values published in the supplement of paper PMC10331698.
± gives the standard deviation of the averaged measurements.

Tests used:
Test in all cases: level (log10 ratio to DMSO vehicle control); higher = higher biomarker level / cell amount than vehicle control
Conditions in all cases: in DMSO
[1] = compound: O=S(=O)(O)C(F)(F)C(F)(F)C(F)(F)C(F)(F)F [Perfluorobutanesulfonic acid]
Procedure: (§1)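 BioMAP Diversity Plus panel of 12 human primary cell co-culture systems (3C, 4H, LPS, SAg, BT, BF4T, BE3C, CASM3C, HDF3CGF, KF3CT, MyoF, Mphg). Compounds were added 1 h before stimulation and left for 24 h (MyoF 48 h; BT 72 h for soluble read-outs or 6 d for IgG). Biomarkers were read by ELISA, cytotoxicity by SRB, PBMC viability and proliferation by Alamar Blue. Each well value was divided by the mean of 8 DMSO control wells on the same plate and log10 transformed; duplicate blinded samples were tested at 4 concentrations.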

Hexafluoroglutaric acid = compound: O=C(O)C(F)(F)C(F)(F)C(F)(F)C(=O)O [Hexafluoroglutaric acid]
Procedure: as §1

Perfluorooctanamide = compound: NC(=O)C(F)(F)C(F)(F)C(F)(F)C(F)(F)C(F)(F)C(F)(F)C(F)(F)F [Perfluorooctanamide]
Procedure: as §1

[2] = compound: O=C(O)C(F)(F)C(F)(F)C(F)(F)C(F)(F)C(F)(F)C(F)(F)C(F)(F)C(F)(F)C(F)(F)C(F)(F)C(F)(F)C(F)(F)C(F)(F)F [Perfluorotetradecanoic acid]
Procedure: as §1

Azathioprine = compound: Cn1cnc([N+](=O)[O-])c1Sc1ncnc2[nH]cnc12 [Azathioprine]
Procedure: as §1

1H,1H-Heptafluorobutanol = compound: OCC(F)(F)C(F)(F)C(F)(F)F [1H,1H-Heptafluorobutanol]
Procedure: as §1

| Test System | level (log10) ([1]; 6700 nM) | level (log10) ([1]; 20000 nM) | level (log10) ([1]; 60000 nM) | level (log10) (Hexafluoroglutaric acid; 6700 nM) | level (log10) (Hexafluoroglutaric acid; 20000 nM) | level (log10) (Hexafluoroglutaric acid; 60000 nM) | level (log10) (Perfluorooctanamide; 6700 nM) | level (log10) (Perfluorooctanamide; 20000 nM) | level (log10) (Perfluorooctanamide; 60000 nM) | level (log10) ([2]; 6700 nM) | level (log10) ([2]; 20000 nM) | level (log10) (Azathioprine; 1400 nM) | level (log10) (Azathioprine; 4200 nM) | level (log10) (Azathioprine; 13000 nM) | level (log10) (Azathioprine; 38000 nM) | level (log10) (1H,1H-Heptafluorobutanol; 6700 nM) | level (log10) (1H,1H-Heptafluorobutanol; 20000 nM) | level (log10) (1H,1H-Heptafluorobutanol; 60000 nM) |
| --- | --- | --- | --- | --- | --- | --- | --- | --- | --- | --- | --- | --- | --- | --- | --- | --- | --- | --- |
| 4H:CCL2/MCP-1 | -0.021 ± 0.0042 | -0.0095 ± 0.023 | -0.017 ± 0.018 | -0.0095 ± 0.032 | -0.0135 ± 0.011 | 0.0245 ± 0.047 | -0.016 ± 0.0028 | -0.005 ± 0.0014 | -0.008 | -0.031 ± 0.0057 | 0.0115 ± 0.019 | 0.018 ± 0.096 | 0.0255 ± 0.04 | -0.035 ± 0.1 | 0.0055 ± 0.042 | 0.0015 ± 0.0035 | -0.0025 ± 0.00071 | 0.0125 ± 0.026 |
| BF4T:IL-1alpha | 0.0135 ± 0.00071 | 0.0135 ± 0.016 | 0.011 ± 0.016 | -0.0065 ± 0.015 | -0.0195 ± 0.0035 | -0.0045 ± 0.033 | 0.008 ± 0.0099 | 0.003 ± 0.017 | -0.001 ± 0.024 | -0.014 ± 0.013 | 0.0235 ± 0.032 | -0.0055 ± 0.019 | -0.0015 ± 0.0092 | -0.009 ± 0.0057 | 0.0005 ± 0.033 | -0.0125 ± 0.0092 | -0.016 | -0.007 ± 0.0042 |
| 4H:CD106/VCAM-1 | -0.024 ± 0.016 | -0.029 ± 0.028 | 0.001 ± 0.033 | -0.005 ± 0.014 | -0.005 ± 0.03 | -0.0045 ± 0.012 | -0.023 | -0.0235 ± 0.0035 | -0.01 ± 0.03 | -0.0805 ± 0.037 | -0.0775 ± 0.0078 | -0.024 ± 0.017 | -0.0205 ± 0.025 | -0.0655 ± 0.015 | -0.132 ± 0.044 | 0 ± 0.03 | 0.0325 ± 0.023 | 0.027 ± 0.048 |
| BF4T:MMP-9 | -0.004 ± 0.0014 | -0.0065 ± 0.028 | -0.013 ± 0.02 | -0.003 ± 0.0014 | -0.0135 ± 0.012 | 0.007 ± 0.0028 | -0.0065 ± 0.011 | 0.0015 ± 0.039 | -0.031 ± 0.048 | -0.0165 ± 0.047 | 0 ± 0.035 | 0.0365 ± 0.087 | -0.001 ± 0.04 | 0.004 ± 0.021 | 0.0215 ± 0.023 | -0.03 ± 0.038 | -0.001 ± 0.011 | -0.0145 ± 0.0021 |
| BF4T:MMP-1 | 0.0035 ± 0.0064 | -0.009 ± 0.013 | -0.0045 ± 0.00071 | 0.0035 ± 0.013 | 0.0215 ± 0.012 | 0.018 ± 0.0099 | -0.0195 ± 0.0078 | 0.0055 ± 0.005 | -0.0385 ± 0.011 | 0.0015 ± 0.00071 | 0.013 ± 0.0028 | 0 ± 0.014 | -0.001 ± 0.0042 | -0.003 ± 0.0042 | 0.019 ± 0.025 | 0.002 ± 0.013 | 0.0085 ± 0.00071 | -0.002 ± 0.018 |
| BF4T:SRB | -0.006 ± 0.0099 | -0.0085 ± 0.005 | -0.009 ± 0.0028 | -0.005 ± 0.0028 | -0.0065 ± 0.0021 | -0.0015 ± 0.0078 | -0.005 ± 0.0042 | 0.008 ± 0.011 | -0.006 ± 0.0042 | 0.0025 ± 0.0092 | 0.001 ± 0.0071 | 0.016 ± 0.014 | -0.0045 ± 0.0092 | -0.0025 ± 0.0021 | -0.005 ± 0.0028 | 0.004 ± 0.017 | -0.0075 ± 0.0078 | 0.009 ± 0.017 |
| LPS:CXCL8/IL-8 | 0.0225 ± 0.019 | 0.0125 ± 0.021 | 0.0765 ± 0.00071 | -0.0235 ± 0.012 | -0.0535 ± 0.018 | -0.028 ± 0.067 | -0.012 ± 0.024 | -0.049 ± 0.023 | -0.0335 ± 0.021 | 0.0125 ± 0.077 | 0.0255 ± 0.16 | 0.035 ± 0.025 | 0.0065 ± 0.013 | 0.0085 ± 0.0092 | -0.049 ± 0.072 | 0.0085 ± 0.013 | -0.006 | -0.025 ± 0.0014 |
| LPS:sPGE2 | 0.0595 ± 0.011 | 0.041 ± 0.051 | 0.0355 ± 0.043 | -0.0265 ± 0.028 | -0.039 ± 0.031 | -0.0185 ± 0.069 | 0.019 ± 0.035 | 0.0225 ± 0.025 | 0.0545 ± 0.036 | 0.0005 ± 0.011 | 0.0255 ± 0.019 | -0.0075 ± 0.033 | 0.037 | -0.022 ± 0.018 | -0.0985 ± 0.03 | 0.025 ± 0.04 | -0.0225 ± 0.052 | 0.009 ± 0.027 |
| BT:sIL-2 | -0.0155 ± 0.079 | -0.059 ± 0.044 | -0.025 ± 0.04 | -0.006 ± 0.11 | 0.0205 ± 0.039 | 0.061 ± 0.013 | 0.0115 ± 0.063 | 0.0045 ± 0.084 | -0.176 ± 0.17 | 0.0535 ± 0.011 | 0.0415 ± 0.069 | -0.017 ± 0.11 | -0.033 ± 0.1 | -0.164 ± 0.037 | -0.629 ± 0.044 | -0.0065 ± 0.077 | -0.0265 ± 0.011 | 0.0365 ± 0.029 |
| BF4T:MMP-3 | 0.014 ± 0.0014 | 0.001 | 0.042 ± 0.033 | -0.0045 ± 0.0092 | -0.0125 ± 0.035 | 0.0175 ± 0.0021 | -0.007 ± 0.051 | 0.0125 ± 0.012 | 0.019 ± 0.017 | 0.027 ± 0.04 | 0.0475 ± 0.066 | 0.01 ± 0.02 | -0.02 ± 0.018 | -0.015 ± 0.0057 | 0.0235 ± 0.052 | 0.004 ± 0.016 | -0.0135 ± 0.012 | 0.0055 ± 0.04 |
| BE3C:CD87/uPAR | -0.035 ± 0.0028 | -0.044 ± 0.016 | -0.037 ± 0.027 | -0.0045 ± 0.0092 | -0.01 ± 0.014 | -0.0125 ± 0.011 | -0.0475 ± 0.0035 | -0.0065 ± 0.035 | -0.004 ± 0.028 | 0.015 ± 0.034 | 0.065 ± 0.05 | 0.0185 ± 0.029 | -0.014 ± 0.0042 | -0.0175 ± 0.057 | -0.0435 ± 0.063 | -0.0115 ± 0.0092 | 0.032 ± 0.018 | 0.0015 ± 0.021 |
| BE3C:CXCL10/IP-10 | 0.009 ± 0.038 | -0.0015 ± 0.028 | 0.0005 ± 0.018 | -0.001 ± 0.0042 | -0.0085 ± 0.00071 | 0.0015 ± 0.023 | -0.0025 ± 0.028 | -0.005 ± 0.0071 | -0.0135 ± 0.015 | 0.008 ± 0.0042 | -0.0275 ± 0.019 | 0.0015 ± 0.028 | 0.0115 ± 0.028 | 0.001 ± 0.024 | 0.001 ± 0.0085 | 0.0345 ± 0.023 | 0.0195 ± 0.035 | 0.0265 ± 0.032 |
| 4H:SRB | 0.0005 ± 0.0064 | 0.002 ± 0.0028 | 0 ± 0.0099 | -0.0005 ± 0.0092 | 0.003 ± 0.016 | 0.011 ± 0.034 | -0.0005 ± 0.005 | -0.008 ± 0.0057 | 0.0085 ± 0.028 | -0.014 ± 0.028 | -0.0155 ± 0.063 | -0.0135 ± 0.0092 | -0.0075 ± 0.005 | -0.015 ± 0.0085 | -0.0485 ± 0.019 | -0.005 ± 0.0071 | -0.0005 ± 0.013 | 0.0065 ± 0.005 |
| BE3C:CXCL8/IL-8 | 0.0075 ± 0.035 | 0.013 ± 0.028 | 0.0005 ± 0.0092 | -0.011 ± 0.014 | -0.0165 ± 0.0064 | -0.011 ± 0.02 | 0.011 ± 0.0028 | 0.011 ± 0.0071 | -0.0045 ± 0.005 | -0.005 ± 0.055 | 0.0365 ± 0.052 | -0.012 ± 0.059 | -0.013 ± 0.054 | -0.052 | -0.088 ± 0.013 | 0.0275 ± 0.063 | 0 ± 0.04 | 0.003 ± 0.033 |
| BT:Secreted IgG | 0.0005 ± 0.00071 | -0.0055 ± 0.023 | -0.016 ± 0.052 | -0.026 ± 0.04 | 0.055 ± 0.013 | 0.019 ± 0.048 | 0.0065 ± 0.0064 | 0.005 ± 0.023 | 0.0215 ± 0.025 | -0.029 ± 0.072 | 0.001 ± 0.03 | -0.866 ± 0.086 | -0.986 ± 0.019 | -0.857 ± 0.054 | -0.672 ± 0.0085 | 0.0305 ± 0.0078 | 0.0055 ± 0.053 | 0.027 ± 0.023 |
| SAg:Proliferation | -0.0295 ± 0.11 | -0.0385 ± 0.023 | 0.039 ± 0.017 | -0.019 ± 0.0071 | -0.0445 ± 0.033 | -0.0275 ± 0.013 | -0.05 ± 0.071 | -0.0255 ± 0.033 | -0.001 ± 0.0014 | -0.038 ± 0.045 | -0.014 ± 0.025 | -0.017 ± 0.047 | -0.052 ± 0.035 | -0.172 ± 0.005 | -0.29 ± 0.021 | 0.009 ± 0.0042 | 0.008 ± 0.02 | 0.0125 ± 0.021 |
